Experimental data published in patent US20070077279A1, “Novel compositions containing polyphenols” (DSM IP Assets B.V., priority 2005, published 2007).

Experiments:
Format in all cases: physicochemical
[1] = Storage test of lozenges at room temperature (25° C./60% relative humidity) in closed polypropylene tubes; details: for Vitamin/polyphenol in mg/tablet, 1 month: lozenges of Example 1, 1 month; for Vitamin/polyphenol in mg/tablet, 2 months: lozenges of Example 1, 2 months; for Vitamin/polyphenol in mg/tablet, 3 months: lozenges of Example 1, 3 months; for Vitamin/polyphenol in mg/tablet, 6 months: lozenges of Example 1, 6 months; for Vitamin/polyphenol in mg/tablet, 12 months: lozenges of Example 1, 12 months; for Vitamin/polyphenol in mg/tablet, 18 months: lozenges of Example 1, 18 months; for Vitamin/polyphenol in mg/tablet, 24 months: lozenges of Example 1, 24 months
[2] = Storage test of chewable tablets at room temperature (25° C./60% relative humidity) in closed polypropylene tubes; details: for Vitamin/polyphenol in mg/tablet, 1 month: chewable tablets of Example 2, 1 month; for Vitamin/polyphenol in mg/tablet, 2 months: chewable tablets of Example 2, 2 months; for Vitamin/polyphenol in mg/tablet, 3 months: chewable tablets of Example 2, 3 months; for Vitamin/polyphenol in mg/tablet, 6 months: chewable tablets of Example 2, 6 months; for Vitamin/polyphenol in mg/tablet, 12 months: chewable tablets of Example 2, 12 months
[3] = Storage test of lozenges under accelerated conditions (40° C./75% relative humidity) in closed polypropylene tubes; details: lozenges of Example 1; for Initial Assay, vitamin/polyphenol in mg/tablet: 40° C./75% relative humidity study; for Vitamin/polyphenol in mg/tablet, 1 month 40° C. / Vitamin/polyphenol in mg/tablet, 2 months 40° C. / Vitamin/polyphenol in mg/tablet, 3 months 40° C.: 40° C./75% relative humidity
[4] = Storage test of chewable tablets under accelerated conditions (40° C./75% relative humidity) in closed polypropylene tubes; details: chewable tablets of Example 2; for Initial Assay, vitamin/polyphenol in mg/tablet: 40° C./75% relative humidity study; for Vitamin/polyphenol in mg/tablet, 1 month 40° C. / Vitamin/polyphenol in mg/tablet, 2 months 40° C. / Vitamin/polyphenol in mg/tablet, 3 months 40° C.: 40° C./75% relative humidity
[5] = lozenges of Example 1, initial (Table 2)
[6] = chewable tablets of Example 2, initial
[7] = chewable tablets of Example 2, initial (Table 4)

Row | SMILES | Vitamin/polyphenol in mg/tablet, 1 month [1] [mg] | Vitamin/polyphenol in mg/tablet, 2 months [1] [mg] | Vitamin/polyphenol in mg/tablet, 3 months [1] [mg] | Vitamin/polyphenol in mg/tablet, 6 months [1] [mg] | Vitamin/polyphenol in mg/tablet, 12 months [1] [mg] | Vitamin/polyphenol in mg/tablet, 18 months [1] [mg] | Vitamin/polyphenol in mg/tablet, 24 months [1] [mg] | Initial Assay, vitamin/polyphenol in mg/tablet ([1]; lozenges of Example 1, initial) [mg] | Initial Assay, vitamin/polyphenol in mg/tablet [1, 5] [mg] | Vitamin/polyphenol in mg/tablet, 1 month [2] [mg] | Vitamin/polyphenol in mg/tablet, 2 months [2] [mg] | Vitamin/polyphenol in mg/tablet, 3 months [2] [mg] | Vitamin/polyphenol in mg/tablet, 6 months [2] [mg] | Vitamin/polyphenol in mg/tablet, 12 months [2] [mg] | Initial Assay, vitamin/polyphenol in mg/tablet [2, 6] [mg] | Initial Assay, vitamin/polyphenol in mg/tablet [2, 7] [mg] | Initial Assay, vitamin/polyphenol in mg/tablet [3] [mg] | Vitamin/polyphenol in mg/tablet, 1 month 40° C. [3] [mg] | Vitamin/polyphenol in mg/tablet, 2 months 40° C. [3] [mg] | Vitamin/polyphenol in mg/tablet, 3 months 40° C. [3] [mg] | also measured
1 | O=C(O[C@@H]1Cc2c(O)cc(O)cc2O[C@@H]1c1cc(O)c(O)c(O)c1)c1cc(O)c(O)c(O)c1 [EGCG, epigallocatechin gallate] | 11.8 | 10.9 | 11.0 | 10.6 | 11.6 | 12.0 | 11.3 | 11.9 | 11.9 | 23.0 | 23.8 | 24.1 | 23.7 | 22.6 | 23.8 | 23.8 | 11.9 | 11.8 | 11.4 | 10.6 | Initial Assay, vitamin/polyphenol in mg/tablet [4]: 23.8 mg; Vitamin/polyphenol in mg/tablet, 1 month 40° C. [4]: 24.8 mg; Vitamin/polyphenol in mg/tablet, 2 months 40° C. [4]: 23.2 mg; Vitamin/polyphenol in mg/tablet, 3 months 40° C. [4]: 23.2 mg
2 | O=C1O[C@H]([C@@H](O)CO)C(O)=C1O [Vit C, Ascorbic Acid] | 11.4 | 12.2 | 11.3 | 12.3 | 12.1 | 12.0 | 11.9 | 12.2 | 12.2 | 32.3 | 33.3 | 36.1 | 32.5 | 33.0 | 33.7 | 33.7 | 12.2 | 11.2 | 11.1 | 11.2 | Initial Assay, vitamin/polyphenol in mg/tablet [4]: 33.7 mg; Vitamin/polyphenol in mg/tablet, 1 month 40° C. [4]: 31.8 mg; Vitamin/polyphenol in mg/tablet, 2 months 40° C. [4]: 32.4 mg; Vitamin/polyphenol in mg/tablet, 3 months 40° C. [4]: 33.6 mg
3 | CC(=O)Oc1c(C)c(C)c2c(c1C)CCC(C)(CCC[C@H](C)CCC[C@H](C)CCCC(C)C)O2 (stereo partly drawn) [Vit E, Tocopherol Acetate] | 1.7 | 1.7 | 1.8 | 1.6 | 1.5 | 1.6 | 1.7 | 1.6 | 1.6 | 8.4 | 8.5 | 8.6 | 8.3 | 8.6 | 8.3 | 8.3 | 1.6 | 1.6 | 1.6 | 1.8 | Initial Assay, vitamin/polyphenol in mg/tablet [4]: 8.3 mg; Vitamin/polyphenol in mg/tablet, 1 month 40° C. [4]: 8.7 mg; Vitamin/polyphenol in mg/tablet, 2 months 40° C. [4]: 8.5 mg; Vitamin/polyphenol in mg/tablet, 3 months 40° C. [4]: 8.5 mg
